Experiments:
[1] = target: T1, Protein cereblon/Tyrosine-protein phosphatase non-receptor type 2 (Homo sapiens, UniProt P17706+Q96SW2); settings: hek293t
Description: PROTAC activity at PTPN2/CRBN in HEK293T cells assessed as protein degradation measured for 48 hrs by Western blot analysis

[2] = target: Protein cereblon/Tyrosine-protein phosphatase non-receptor type 1 (Homo sapiens, UniProt P18031+Q96SW2); settings: hek293t
Description: PROTAC activity at PTP1B/CRBN in HEK293T cells assessed as maximal protein degradation at 10 uM measured for 48 hrs by Western blot analysis relative to control

[3] = target: T2, Tyrosine-protein phosphatase non-receptor type 1 (Homo sapiens, UniProt P18031)
T2 sequence (P18031 whole entry): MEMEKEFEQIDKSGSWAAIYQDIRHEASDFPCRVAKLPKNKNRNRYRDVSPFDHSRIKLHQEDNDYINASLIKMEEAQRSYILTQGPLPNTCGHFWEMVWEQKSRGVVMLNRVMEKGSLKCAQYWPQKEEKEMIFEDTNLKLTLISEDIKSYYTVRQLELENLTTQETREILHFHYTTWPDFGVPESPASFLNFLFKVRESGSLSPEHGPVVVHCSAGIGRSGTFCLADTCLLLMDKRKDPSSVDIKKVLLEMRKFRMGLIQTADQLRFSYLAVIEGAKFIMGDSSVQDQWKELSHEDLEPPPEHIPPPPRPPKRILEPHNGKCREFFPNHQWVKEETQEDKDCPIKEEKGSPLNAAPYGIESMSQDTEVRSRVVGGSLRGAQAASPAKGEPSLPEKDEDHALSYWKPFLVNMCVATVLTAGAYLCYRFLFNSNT
Description: Inhibition of full length His-tagged PTP1B (unknown origin) by mobility shift assay

[4] = target: T3, Tyrosine-protein phosphatase non-receptor type 2 (Homo sapiens, UniProt P17706)
T3 sequence (P17706 whole entry): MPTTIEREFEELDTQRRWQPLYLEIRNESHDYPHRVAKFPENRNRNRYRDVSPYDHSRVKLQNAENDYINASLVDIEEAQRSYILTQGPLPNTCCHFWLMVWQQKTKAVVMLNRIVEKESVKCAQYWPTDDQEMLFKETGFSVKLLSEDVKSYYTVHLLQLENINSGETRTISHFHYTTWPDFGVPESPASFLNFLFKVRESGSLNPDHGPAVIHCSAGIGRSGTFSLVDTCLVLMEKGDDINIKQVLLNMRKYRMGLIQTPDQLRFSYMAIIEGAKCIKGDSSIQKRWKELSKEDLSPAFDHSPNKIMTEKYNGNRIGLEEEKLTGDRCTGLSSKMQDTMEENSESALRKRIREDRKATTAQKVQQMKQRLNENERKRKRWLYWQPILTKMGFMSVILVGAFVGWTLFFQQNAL
Description: Inhibition of His-tagged PTPN2 (unknown origin) by mobility shift assay

[5] = target: T3, Tyrosine-protein phosphatase non-receptor type 2; remark: listed apart in the source
Description: (§1) Inhibition of wild type FLAG-tagged PTPN2 (unknown origin) extracted from Escherichia coli BL21 (DE3) by micro-plate reader assay

[6] = target: T3, Tyrosine-protein phosphatase non-receptor type 2; remark: listed apart in the source
Description: Inhibition of PTPN2 (unknown origin) using DiFMUP as substrate pre-incubated for 15 mins and measured for 30 mins by fluorescence based analysis

[7] = target: T2, Tyrosine-protein phosphatase non-receptor type 1; remark: listed apart in the source
Description: Binding affinity to PTP1B (unknown origin) using pNPP as substrate incubated for 60 mins by fluorescence based analysis

[8] = target: T2, Tyrosine-protein phosphatase non-receptor type 1; remark: listed apart in the source
Description: Binding affinity to PTP1B (unknown origin) assessed as inhibition constant

[9] = target: T3, Tyrosine-protein phosphatase non-receptor type 2; remark: listed apart in the source
Description: Inhibition of PTPN2 (unknown origin) using pNPP as substrate measured for 60 mins by fluorescence based analysis

[10] = target: T3, Tyrosine-protein phosphatase non-receptor type 2; remark: listed apart in the source
Description: Binding affinity to PTPN2 (unknown origin) assessed as inhibition constant

B16-F10 [11] = assay: cells; settings: Mus musculus
Description: Antiproliferative activity against mouse B16-F10 cells assessed as reduction in cell growth

[12] = target: T2, Tyrosine-protein phosphatase non-receptor type 1; remark: listed apart in the source
Description: Inhibition of PTP1B (unknown origin)

[13] = target: T1, Protein cereblon/Tyrosine-protein phosphatase non-receptor type 2; settings: hek293t; remark: listed apart in the source
Description: PROTAC activity at PTPN2/CRBN in HEK293T cells assessed as induction of PTPN2 degradation incubated for 24 hrs by Nan-glo HiBiT lytic assay

[14] = target: T3, Tyrosine-protein phosphatase non-receptor type 2; remark: listed apart in the source
Description: Binding affinity to PTPN2 (unknown origin) assessed as dissociation constant by SPR assay

B16-F10 [15] = assay: cells; settings: Mus musculus; remark: listed apart in the source
Description: Antiproliferative activity against mouse B16-F10 cells

[16] = target: T2, Tyrosine-protein phosphatase non-receptor type 1; remark: listed apart in the source
Description: Inhibition of PTP1B (unknown origin) by mobility shift assay

[17] = target: T3, Tyrosine-protein phosphatase non-receptor type 2; remark: listed apart in the source
Description: Inhibition of PTPN2 (unknown origin) by mobility shift assay

[18] = target: T3, Tyrosine-protein phosphatase non-receptor type 2; remark: listed apart in the source
Description: Inhibition of human PTPN2 using DiFMUP as substrate by fluorescence based analysis

[19] = target: T2, Tyrosine-protein phosphatase non-receptor type 1; remark: listed apart in the source
Description: Inhibition of PTP1B (unknown origin) using para-nitrophenol phosphate substrate incubated for 30 mins by fluorescence based analysis

[20] = target: T3, Tyrosine-protein phosphatase non-receptor type 2; remark: listed apart in the source
Description: Inhibition of full length human recombinant PTPN2 using DiFMUP as substrate

[21] = target: T3, Tyrosine-protein phosphatase non-receptor type 2; remark: listed apart in the source
Description: Inhibition of PTPN2 (unknown origin) using DiFMUP as substrate incubated for 30 mins by fluorescence based analysis

B16-F10 [22] = assay: animal or person; settings: Mus musculus, B16-F10, 360 h, read-out: TGI
B16-F10 [23] = assay: cells; settings: Mus musculus; remark: listed apart in the source
Description: Antiproliferative activity against mouse B16-F10 cells assessed as inhibition of cell growth

[24] = target: T3, Tyrosine-protein phosphatase non-receptor type 2; remark: listed apart in the source
Description: Inhibition of full length human recombinant PTPN2 (1 to 387 residues)

[25] = target: T3, Tyrosine-protein phosphatase non-receptor type 2; remark: listed apart in the source
Description: as §1

cells = settings: Homo sapiens, B16
Description: Inhibition of PTPN2/PTPN1 (unknown origin) in mouse B16 cells assessed as inhibition of IFNgamma-mediated STAT1 phosphorylation

[26] = target: T2, Tyrosine-protein phosphatase non-receptor type 1; remark: listed apart in the source
Description: Inhibition of C-terminal recombinant PTP1B (1 to 405 residues) (unknown origin) using pNPP as substrate incubated for 30 mins by fluorescence based analysis

Sequence of Protein cereblon/Tyrosine-protein phosphatase non-receptor type 1 (Q96SW2 whole entry, one chain of several): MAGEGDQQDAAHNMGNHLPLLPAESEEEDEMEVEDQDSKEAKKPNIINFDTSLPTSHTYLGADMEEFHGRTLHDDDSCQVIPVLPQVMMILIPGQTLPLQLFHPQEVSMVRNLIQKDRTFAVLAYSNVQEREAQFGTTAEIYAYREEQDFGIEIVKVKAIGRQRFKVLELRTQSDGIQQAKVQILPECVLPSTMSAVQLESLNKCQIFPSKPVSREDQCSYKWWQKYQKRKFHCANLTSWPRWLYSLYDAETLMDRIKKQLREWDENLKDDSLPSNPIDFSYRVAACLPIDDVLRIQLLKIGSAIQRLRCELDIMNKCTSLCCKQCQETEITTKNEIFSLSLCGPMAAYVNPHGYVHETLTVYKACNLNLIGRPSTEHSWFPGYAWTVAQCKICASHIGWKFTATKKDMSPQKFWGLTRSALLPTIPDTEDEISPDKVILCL
T1 sequence (Q96SW2 whole entry, one chain of several): as above

Question: For `Cc1ncsc1-c1ccc([C@H](C)NC(=O)[C@@H]2C[C@@H](O)CN2C(=O)[C@@H](NC(=O)CCCCCCNC(=O)Cn2cc(-c3ccc4cc(O)c(N5CC(=O)NS5(=O)=O)c(F)c4c3)cn2)C(C)(C)C)cc1`, which DC50 [1] is on record?
Answer: Its DC50 is 94 nM.

Question: What about the DC50 [2] of the same compound?
Answer: The DC50 was 142 nM.

Question: Which IC50 [3] does the source give for `CC(C)CCOc1ccc2cc(O)c(N3CC(=O)NS3(=O)=O)c(F)c2c1` here?
Answer: The IC50 was 0.63 nM.

Question: And the IC50 [4]?
Answer: Its IC50 is 0.58 nM.

Question: Which results are given for `Cc1ncsc1-c1ccc([C@H](C)NC(=O)[C@@H]2C[C@@H](O)CN2C(=O)[C@@H](NC(=O)CCCCCNC(=O)Cn2cc(-c3ccc4cc(O)c(N5CC(=O)NS5(=O)=O)c(F)c4c3)cn2)C(C)(C)C)cc1`?
Answer: DC50 [1]: 217 nM; DC50 [2]: 13100 nM

Question: Which IC50 [5] does the source give for `CCN(CN=O)c1ccc(O)c(O)c1` here?
Answer: Its IC50 is 6500 nM.

Question: For `Cc1ncsc1-c1ccc([C@H](C)NC(=O)[C@@H]2C[C@@H](O)CN2C(=O)[C@@H](NC(=O)CCCCCCCNC(=O)Cn2cc(-c3ccc4cc(O)c(N5CC(=O)NS5(=O)=O)c(F)c4c3)cn2)C(C)(C)C)cc1`, which DC50 [1] is on record?
Answer: Its DC50 is 77 nM.

Question: What about the DC50 [2] of the same compound?
Answer: The DC50 was 758 nM.

Question: For `COc1ccc2cc(O)c(N3CC(=O)NS3(=O)=O)c(F)c2c1` [TEGEPROTAFIB], which IC50 [3] is on record?
Answer: The IC50 was 1 nM.

Question: What about the IC50 [4] of the same compound?
Answer: Its IC50 is 1 nM.

Question: Which IC50 [6] does the source give for `CCc1ccc(C(=O)NCCCC[C@H](NC(=O)[C@H](Cc2ccc(C(F)(F)P(=O)(O)O)cc2)NC(=O)[C@@H](CC(=O)COC2CC(C)CCC2C(C)C)Cc2ccccc2)C(N)=O)cc1` (some centres undefined) here?
Answer: Its IC50 is 9.2 nM.

Question: And the Ki [7]?
Answer: Its Ki is 34 nM.

Question: And the Ki [8]?
Answer: Its Ki is 34 nM.

Question: What about the IC50 [9] of the same compound?
Answer: Its IC50 is 9.2 nM.

Question: What about the Ki [10] of the same compound?
Answer: Its Ki is 4.3 nM.

Question: Which results are given for `CC(C)(O)CCOc1ccc2cc(O)c(N3CC(=O)NS3(=O)=O)c(F)c2c1`?
Answer: IC50 (B16-F10 [11]): 5800 nM; IC50 [4]: 0.6 nM

Question: Which Ki [8] does the source give for `O=C(O)COc1c(C(=O)O)sc(-c2cccc(N(C(=O)c3ccccc3)C3CCCCC3)c2)c1Br` here?
Answer: Its Ki is 16 nM.

Question: What about the Ki [10] of the same compound?
Answer: Its Ki is 32 nM.

Question: Which results are given for `O=c1c2ccccc2nnn1O`?
Answer: IC50 [12]: 472000 nM; IC50 [5]: 369000 nM

Question: For `Cn1c(=O)n(C2CCC(=O)NC2=O)c2ccc(C3CCN(C(=O)Nc4cccc(CS(=O)(=O)N5CC[C@H](Nc6cccc(-c7sc(C(=O)O)c(OCC(=O)O)c7Cl)c6)CC5(C)C)c4)CC3)cc21` (some centres undefined), which DC50 [13] is on record?
Answer: Its DC50 is 44 nM.

Question: What about the Kd [14] of the same compound?
Answer: The Kd was 52 nM.

Question: For `CC(C)CCN[C@H]1CCc2cc(O)c(N3CC(=O)NS3(=O)=O)c(F)c2C1`, which IC50 (B16-F10 [15]) is on record?
Answer: Its IC50 is 1000 nM.

Question: And the IC50 [16]?
Answer: Its IC50 is 10 nM.

Question: What about the IC50 [17] of the same compound?
Answer: The IC50 was 10 nM.

Question: Which IC50 [3] does the source give for `CC(C)CCNc1ccc2cc(O)c(N3CC(=O)NS3(=O)=O)c(F)c2c1` here?
Answer: Its IC50 is < 1 nM.

Question: And the IC50 [4]?
Answer: The IC50 was 1 nM.

Question: What does the source list for `C=C(C)C#COc1cc(C(N)=O)cc2c(Br)c(C(F)(F)P(=O)(O)O)sc12`?
Answer: IC50 [18]: 13.7 nM; IC50 [19]: 132 nM

Question: What does the source list for `O=C1CN(c2c(O)cc(CNc3ncc[nH]3)cc2F)S(=O)(=O)N1`?
Answer: IC50 (B16-F10 [15]): 160 nM; IC50 [20]: 10 nM

Question: Which results are given for `Cc1cnnc(NCc2cc(O)c(N3CC(=O)NS3(=O)=O)c(F)c2)c1`?
Answer: IC50 (B16-F10 [15]): 410 nM; IC50 [20]: 4 nM

Question: For `O=P(O)(O)C(F)(F)c1cc2sc(CO)cc2cc1Br`, which IC50 [21] is on record?
Answer: The IC50 was 1500 nM.

Question: With `Cn1ccnc1NCc1cc(O)c(N2CC(=O)NS2(=O)=O)c(F)c1` as the compound, how does the IC50 (B16-F10 [15]) read?
Answer: The IC50 was 180 nM.

Question: What about the IC50 [20] of the same compound?
Answer: The IC50 was 6 nM.

Question: Which DC50 [1] does the source give for `Cc1ncsc1-c1ccc([C@H](C)NC(=O)[C@@H]2C[C@@H](O)CN2C(=O)[C@@H](NC(=O)CCCCCCCCCCNC(=O)Cn2cc(-c3ccc4cc(O)c(N5CC(=O)NS5(=O)=O)c(F)c4c3)cn2)C(C)(C)C)cc1` here?
Answer: The DC50 was 571 nM.

Question: And the DC50 [2]?
Answer: Its DC50 is 2000 nM.

Question: What does the source list for `CC1(C)C[C@@H](Nc2cccc(-c3sc(C(=O)O)c(OCC(=O)O)c3Cl)c2)CCN1S(=O)(=O)Cc1cccc(NC(=O)N2CCC(c3ccc4c5c(cccc35)C(=O)N4[C@H]3CCC(=O)NC3=O)CC2)c1`?
Answer: DC50 [13]: 44 nM; inhibition in vivo at 10 mg/kg (B16-F10 [22]): 98%

Question: For `NC(=O)c1cc2cc(Br)c(C(F)(F)P(=O)(O)O)cc2s1`, which IC50 [21] is on record?
Answer: The IC50 was 280 nM.

Question: Which IC50 [12] does the source give for `[2H]ON1C(=O)c2cccc3c([N+](=O)[O-])ccc(c23)C1=O` here?
Answer: Its IC50 is 113000 nM.

Question: And the IC50 [5]?
Answer: Its IC50 is 198000 nM.

Question: With `CC(C)CC1CCN(C2CCN(Cc3cc(O)c(N4CC(=O)NS4(=O)=O)c(F)c3)C2)C1` (centres undefined) as the compound, how does the IC50 (B16-F10 [23]) read?
Answer: The IC50 was 8440 nM.

Question: What about the IC50 [24] of the same compound?
Answer: The IC50 was 66 nM.

Question: For `CC(C)(C)C(=O)Nc1ccc2c(c1)C(=O)C(=O)c1ccccc1-2`, which IC50 [25] is on record?
Answer: The IC50 was 950 nM.

Question: With `CCCC1CCN(C2CCN(Cc3cc(O)c(N4CC(=O)NS4(=O)=O)c(F)c3)C2)C1` (centres undefined) as the compound, how does the IC50 (B16-F10 [23]) read?
Answer: The IC50 was 19300 nM.

Question: And the IC50 [24]?
Answer: Its IC50 is 65 nM.

Question: With `CC(C)C[C@@H]1NC(=O)[C@H](Cc2ccc(OC(F)(C(=O)O)C(=O)O)cc2)NC(=O)[C@H](CCC(=O)O)NC(=O)[C@H](CC(=O)O)NC(=O)[C@H](C)NC(=O)[C@H](CC(=O)O)NC(=O)SC[C@H](C(N)=O)NC1=O` as the compound, how does the Ki [8] read?
Answer: The Ki was 170 nM.

Question: For `CC(C)CCN[C@@H]1CCc2cc(O)c(N3CC(=O)NS3(=O)=O)c(F)c2C1` [OSUNPROTAFIB], which IC50 (B16-F10 [15]) is on record?
Answer: The IC50 was 64 nM.

Question: What about the EC50 (cells) of the same compound?
Answer: The EC50 was 180 nM.

Question: What about the IC50 [17] of the same compound?
Answer: The IC50 was 2.8 nM.

Question: Which IC50 [12] does the source give for `C=C(C)[C@@H]1CC[C@@H](C)[C@@H]2CCC(C)=C[C@@H]21` here?
Answer: The IC50 was 27000 nM.

Question: What about the IC50 [26] of the same compound?
Answer: The IC50 was 7700 nM.

Question: For `O=C1/C(=N\Nc2ccc(S(=O)(=O)O)cc2)C(c2ccc([N+](=O)[O-])cc2)=NN1c1ccccc1`, which IC50 [5] is on record?
Answer: Its IC50 is 3790 nM.

Question: For `Cc1cccc(NCc2cc(F)c(N3CC(=O)NS3(=O)=O)c3[nH]ncc23)n1`, which IC50 (B16-F10 [15]) is on record?
Answer: Its IC50 is > 15000 nM.

Question: And the IC50 [20]?
Answer: Its IC50 is 199 nM.
